# Test results: patent publication US20060177503A1, “Bambuterol and integrin inhibitor combination and treatment method” (priority 2005, published 2006)
# Key:
# atopic primate = assay: Airway inflammation in the atopic primate, oral R411; assay type: in vivo; details: oral administration, FIG. 4
# [1] = system: persistent asthmatics treated with low to medium inhaled corticosteroids; assay: MARS study: R411 added to inhaled corticosteroids, 12 week treatment period; assay type: in vivo, human; details: added to moderate dose inhaled corticosteroids, subpopulation with not well controlled asthma
# Source text: As set out above, a second component in the solid pharmaceutical dosage form comprises a therapeutically effective amount of R411 (N-(2-chloro-6-methylbenzoyl)-4-[(2,6-dichlorobenzoyl)amino]-L-phenylalanine-2-(diethylamino)ethyl ester), or a pharmaceutically acceptable salt thereof. […] The MARS study illustrated in FIG. 2 was designed to evaluate the safety and efficacy of R411 over a 12 week treatment period in 350 persistent asthmatics being treated with a stable dose of low to medium inhaled corticosteroids and inhaled short acting β2-agonist. Patients were randomized to one of five cohorts: 50, 200, 600 mg once daily (QD) or 300 mg twice daily (BID) R411, or placebo (n=70/group). After a 2-week placebo run-in period and subsequent 2-week add-on period (R411 or placebo), morning inhaled corticosteroids were removed. Two weeks later, evening inhaled corticosteroids were removed, and patients remained in the treatment period for an additional 8 weeks. The primary endpoint in the study was the percentage change in FEV1 from baseline, and secondary endpoint included PEFR, asthma exacerbations, (2-agonist use, asthma control questionnaire, asthma symptom scores, nocturnal awakenings, FEF25-75 and rate of asthma treatment failures.
# α4/β7 = target: T1, α4/β7 (Homo sapiens, UniProt P13612+P26010); assay: Inhibition of binding of α4/β7 to MadCAM-1
# T1 sequence (P13612 34-1032): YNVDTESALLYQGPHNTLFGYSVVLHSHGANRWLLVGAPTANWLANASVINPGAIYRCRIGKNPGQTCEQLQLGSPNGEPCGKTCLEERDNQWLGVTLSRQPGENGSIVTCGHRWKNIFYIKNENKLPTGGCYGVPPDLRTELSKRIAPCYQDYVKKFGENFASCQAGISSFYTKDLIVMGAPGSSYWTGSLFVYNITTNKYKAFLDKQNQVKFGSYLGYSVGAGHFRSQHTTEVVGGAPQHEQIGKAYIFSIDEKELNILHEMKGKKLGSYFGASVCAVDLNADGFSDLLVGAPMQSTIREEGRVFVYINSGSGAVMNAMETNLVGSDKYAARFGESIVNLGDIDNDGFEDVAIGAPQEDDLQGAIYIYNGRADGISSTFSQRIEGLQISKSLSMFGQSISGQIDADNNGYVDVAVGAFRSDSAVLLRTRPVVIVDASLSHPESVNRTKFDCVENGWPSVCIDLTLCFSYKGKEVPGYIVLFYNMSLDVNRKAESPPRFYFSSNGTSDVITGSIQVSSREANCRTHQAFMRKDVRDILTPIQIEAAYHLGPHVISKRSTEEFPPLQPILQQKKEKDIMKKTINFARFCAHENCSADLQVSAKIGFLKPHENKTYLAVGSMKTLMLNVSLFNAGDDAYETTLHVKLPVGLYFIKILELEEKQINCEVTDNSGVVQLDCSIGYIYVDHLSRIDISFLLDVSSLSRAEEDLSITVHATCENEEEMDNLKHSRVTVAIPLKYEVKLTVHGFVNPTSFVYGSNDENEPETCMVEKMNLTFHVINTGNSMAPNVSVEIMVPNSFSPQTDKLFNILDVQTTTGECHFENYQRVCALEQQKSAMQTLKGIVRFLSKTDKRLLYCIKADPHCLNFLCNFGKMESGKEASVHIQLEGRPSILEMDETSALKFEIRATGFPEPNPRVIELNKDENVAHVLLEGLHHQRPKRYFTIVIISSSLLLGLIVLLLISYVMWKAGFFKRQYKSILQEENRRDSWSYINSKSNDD
# T1 sequence (P26010 20-798): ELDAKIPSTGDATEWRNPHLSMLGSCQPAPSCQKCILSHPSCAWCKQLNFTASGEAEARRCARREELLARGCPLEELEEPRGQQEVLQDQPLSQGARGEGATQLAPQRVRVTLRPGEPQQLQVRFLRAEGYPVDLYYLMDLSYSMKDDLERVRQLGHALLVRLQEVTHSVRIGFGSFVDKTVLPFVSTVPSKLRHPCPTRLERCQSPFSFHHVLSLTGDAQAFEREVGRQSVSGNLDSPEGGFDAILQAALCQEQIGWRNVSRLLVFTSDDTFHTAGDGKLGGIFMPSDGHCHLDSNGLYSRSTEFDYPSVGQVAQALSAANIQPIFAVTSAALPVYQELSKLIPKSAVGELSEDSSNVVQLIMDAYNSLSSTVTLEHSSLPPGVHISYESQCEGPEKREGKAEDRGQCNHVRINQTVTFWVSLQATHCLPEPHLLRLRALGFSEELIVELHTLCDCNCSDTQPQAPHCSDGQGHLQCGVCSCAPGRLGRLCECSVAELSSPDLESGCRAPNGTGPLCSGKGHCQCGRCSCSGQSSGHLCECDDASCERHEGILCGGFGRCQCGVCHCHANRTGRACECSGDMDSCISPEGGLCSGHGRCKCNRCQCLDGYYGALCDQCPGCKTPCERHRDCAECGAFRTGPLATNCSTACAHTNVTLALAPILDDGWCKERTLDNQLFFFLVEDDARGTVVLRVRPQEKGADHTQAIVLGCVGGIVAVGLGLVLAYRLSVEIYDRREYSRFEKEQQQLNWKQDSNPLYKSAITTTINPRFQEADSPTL
# Source text: (§1) R411 inhibits the binding of α4/β1 to vascular cell adhesion molecule (VCAM-1) and α4/β7 to MadCAM-1 by […] is disclosed in U.S. Pat. No. 6,229,011, which disclosure is incorporated by reference herein.
# Hydrolytic stability = assay type: physicochemical
# Source text: The pharmaceutical dosage forms of the present invention can be prepared according to the examples set out below. […] Furthermore, both compounds are weak bases and the solubility and stability of the compounds are sensitive to counter-ions. In order to assure the stability of the product and to achieve desirable solubility of the dosage form, the choice of excipient is critical. Including an acidulating agent such as fumaric acid, adipic acid, succinic acid, tartaric acid, citric acid, lactic acid, maleic acid, etc., in the formulation, as well as eliminating soluble cations, is important to assure the solubility and stability of the product.
# α4/β1 = α4/β1 (Homo sapiens, UniProt P05556+P13612); assay: Inhibition of binding of α4/β1 to VCAM-1
# α4/β1, sequence (P05556 21-798, one chain of several): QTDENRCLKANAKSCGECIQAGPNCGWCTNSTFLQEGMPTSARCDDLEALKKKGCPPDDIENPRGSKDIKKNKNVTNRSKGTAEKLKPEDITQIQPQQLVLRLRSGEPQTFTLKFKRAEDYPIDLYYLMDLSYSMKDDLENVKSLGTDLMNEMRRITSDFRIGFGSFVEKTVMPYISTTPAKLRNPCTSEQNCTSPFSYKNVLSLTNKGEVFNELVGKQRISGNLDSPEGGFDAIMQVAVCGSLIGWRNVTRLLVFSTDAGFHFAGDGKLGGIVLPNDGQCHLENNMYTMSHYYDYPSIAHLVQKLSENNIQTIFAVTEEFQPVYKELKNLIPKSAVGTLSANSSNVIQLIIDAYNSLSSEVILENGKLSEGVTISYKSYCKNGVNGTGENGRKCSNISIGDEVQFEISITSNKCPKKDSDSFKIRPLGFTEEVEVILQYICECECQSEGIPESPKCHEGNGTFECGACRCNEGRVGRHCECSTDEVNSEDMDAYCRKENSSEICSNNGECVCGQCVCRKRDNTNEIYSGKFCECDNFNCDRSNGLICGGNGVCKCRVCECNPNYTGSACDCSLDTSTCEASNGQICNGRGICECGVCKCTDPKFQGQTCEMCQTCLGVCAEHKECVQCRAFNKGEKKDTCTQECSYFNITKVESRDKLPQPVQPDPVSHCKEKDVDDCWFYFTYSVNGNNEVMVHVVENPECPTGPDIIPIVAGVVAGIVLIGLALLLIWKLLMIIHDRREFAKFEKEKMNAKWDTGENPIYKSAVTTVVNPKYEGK
# Source text: as §1
# key inflammatory cells = assay: Migration of inflammatory cells from the blood into the lungs; details: in vivo
# [2] = target: T2, (Homo sapiens, UniProt P13612); assay: In vitro binding to α4 integrin, activated and not activated
# T2 sequence (P13612 34-1032): T1 sequence (P13612 34-1032)
# [3] = system: mild/moderate asthmatics not treated with inhaled corticosteroids; assay: ARES study: R411 monotherapy over a 12 week treatment period; assay type: in vivo, human
# Experimental: The ARES study illustrated in FIG. 3 was designed to evaluate the safety and efficacy of monotherapy R411 over a 12 week treatment period in 480 mild/moderate asthmatics not treated with inhaled corticosteroids. Patients were randomized to one of four cohorts: 50, 200, 600 mg QD R411, or placebo (n=120/group).
# The ARES study evaluated the safety and efficacy of monotherapy with R411 over a 12-week treatment period in 479 mild/moderate asthmatics not treated with inhaled corticosteroids. Patients were randomized to one of four cohorts: 50, 200, 600 mg once daily R411, or placebo.
# smooth muscle = details: cited from earlier work
# plasma cholinesterase = plasma cholinesterase (Homo sapiens, UniProt P06276); details: cited from earlier work
# plasma cholinesterase, sequence (P06276 29-602): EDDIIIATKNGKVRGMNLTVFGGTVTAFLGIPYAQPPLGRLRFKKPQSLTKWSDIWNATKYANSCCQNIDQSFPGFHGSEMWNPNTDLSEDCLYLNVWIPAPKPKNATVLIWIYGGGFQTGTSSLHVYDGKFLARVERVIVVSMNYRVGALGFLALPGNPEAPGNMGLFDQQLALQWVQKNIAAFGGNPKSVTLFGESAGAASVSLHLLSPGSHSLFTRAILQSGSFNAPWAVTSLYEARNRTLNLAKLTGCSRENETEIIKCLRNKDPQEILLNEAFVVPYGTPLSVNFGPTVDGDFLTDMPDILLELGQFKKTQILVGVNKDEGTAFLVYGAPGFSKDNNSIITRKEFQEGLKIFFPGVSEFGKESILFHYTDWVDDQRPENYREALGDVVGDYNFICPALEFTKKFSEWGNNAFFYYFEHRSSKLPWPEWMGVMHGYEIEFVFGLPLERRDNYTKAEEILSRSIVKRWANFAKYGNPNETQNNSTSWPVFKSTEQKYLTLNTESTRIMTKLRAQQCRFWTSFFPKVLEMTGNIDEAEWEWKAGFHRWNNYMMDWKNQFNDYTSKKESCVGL
# [4] = system: histamine induced bronchoconstriction; details: cited from earlier work
smiles,measurement,setting,value
"CCN(CC)CCOC(=O)[C@H](Cc1ccc(NC(=O)c2c(Cl)cccc2Cl)cc1)NC(=O)c1c(C)cccc1Cl [R411, N-(2-Chloro-6-methylbenzoyl)-4-[(2,6-dichlorobenzoyl)amino]-L-phenylalanine-2-(diethylamino)ethyl ester]",airway inflammation,atopic primate,attenuates airway inflammation
same,large airway flow rates as measured by FEV1,[1]; FIG. 1,additive effect
same,small airway flow rates measured by FEF25-75,[1]; FIG. 2,additive effect
same,binding of α4/β7 to MadCAM-1,α4/β7,inhibits
same,effectiveness against α4/β7 integrin,α4/β7,effective
same,hydrolytic degradation,Hydrolytic stability,susceptible to hydrolytic degradation
same,binding of α4/β1 to VCAM-1,α4/β1,inhibits
same,effectiveness against α4/β1 integrin,α4/β1,effective
same,migration of key inflammatory cells from the blood into the lungs,key inflammatory cells,block the migration
same,binding affinity,[2]; activated α4 ligand,high affinity
same,dissociation,[2]; activated α4 ligand,slow dissociation
same,dissociation,[2]; receptor not activated,more rapid
same,in vitro binding affinity,[2]; receptor not activated,lower
same,Asthma Control Questionnaire Scores,[3]; compared to placebo,Improvement
same,Asthma Quality-of-Life,[3]; compared to placebo,Improvement
same,decrease in daytime asthma symptom score,"[3]; monotherapy, 12 weeks",Statistically significant improvements
same,decrease in nocturnal symptom score,"[3]; monotherapy, 12 weeks",Statistically significant improvements
same,reducing rescue albuterol use,"[3]; monotherapy, 12 weeks",Statistically significant improvements
same,small airway flow rates as measured by FEF25-75,"[3]; monotherapy, FIG. 3",significant effect
CN(C)C(=O)Oc1cc(O)cc(C(O)CNC(C)(C)C)c1 (centres unmarked) [monocarbamate ester],smooth muscle relaxing properties,smooth muscle,did not exert any
CN(C)C(=O)Oc1cc(OC(=O)N(C)C)cc([C@H](O)CNC(C)(C)C)c1 [(+)-bambuterol],activity as plasma cholinesterase inhibitors,plasma cholinesterase,equally active
"CN(C)C(=O)Oc1cc(OC(=O)N(C)C)cc(C(O)CNC(C)(C)C)c1 (single isomer, unassigned; (-)) [(−)-bambuterol]",activity as plasma cholinesterase inhibitors,plasma cholinesterase,equally active
"CN(C)C(=O)Oc1cc(OC(=O)N(C)C)cc(C(O)CNC(C)(C)C)c1 (centres unmarked) [Bambuterol, dimethylcarbamic acid 5-[2-[(1,1-dimethylethyl)amino]-1-hydroxyethyl]-1,3-phenylene ester]",hydrolytic degradation,Hydrolytic stability,susceptible to hydrolytic degradation
same,smooth muscle relaxing properties,smooth muscle,did not exert any
same,duration of the relaxing activity,"[4]; equipotent doses, compared with terbutaline",more prolonged
same,protective effect against histamine induced bronchoconstriction,[4]; oral administration,sustained protective effect
